From US20260262644A1, “Antifungal compositions comprising natamycin” (Patent Nata B.V., priority 2023, published 2026) come the findings set out here.

For one series, the system named is Botrytis cinerea. Description: Mycelium growth on PDA petri dishes containing natamycin and/or solvent; synergy by Colby equation. It counts as cell-based. The note with it: 1 day after plug.
In series [1] the test system is Pythium ultimum. The series is described as above. It counts as cell-based. The text has this: The Colby equation (Colby, 1967. Weeds 15: 20-22) calculates the expected antifungal activity (E in %) of a combination comprising more than one active ingredients:
wherein X and Y are the observed antifungal activities (in %) of the individual active ingredients x and y, respectively. If the observed antifungal activity (O in %) of the combination exceeds the expected antifungal activity (E in %) of the combination and the synergy factor O/E is thus >1.0, the combined application of the active ingredients and solvent leads to a synergistic antifungal effect.
Agar medium was prepared by mixing in a 100 ml Duran bottle 3.9 g of potato dextrose agar (PDA; Carl-Roth GmbH+Co. KG, Karlsruhe, Germany) with 100 ml deionized water and autoclaving the Duran bottle at 120° C. for 15 minutes. After autoclaving, the solution was cooled by putting it in a 50° C. oven for about two hours. Afterward the semi-liquid PDA solution was carefully mixed with natamycin and/or solvent dosages as specified in Table 2 (left column). The medium in the Duran bottle was divided over 5 petri dishes (90×15 mm), 20 ml per petri dish by using 25 ml serological pipets (ROTILABO®; Carl-Roth). Each natamycin and/or solvent treatment was performed in five fold.
Hereafter, a circular agar mycelium plug (circular segment with a height on 5 mm of agar, fully grown with fresh Pythium ultimum mycelium, which was cut out of a petri dish with the broad side of a yellow pipette tip (Greiner Bio-One, 200 μl tips) with a diameter of 5 mm, was placed in the center of the petri dish. Hereafter the petri dishes were placed in the incubator at 22° C. Measurement of the fungal growth was done using caliper.
The solvent levels and the period after which the assessments were made are presented as specified for the different solvents are presented in Table 2 below. Synergistic calculation was done using the Colby equation. Experiment was performed in 5-fold.

Series [2] deals with Pythium ultimum. In words: Emergence of coated spinach seeds in artificially infected soil. The settings on record: natamycin 0.25, BL 0, thymol 0 mg/g seeds, 6 days after sowing. It counts as in vivo.
Procedure: Spinach seeds were placed in soil that was artificially infected (see below for method).
Soil infection was obtained via incubation of soil with infected, killed rye seeds. […] The dead rye seeds were infected with Pythium ultimum PDA plugs (circular segments of PDA, covered with freshly fully grown Pythium ultimum mycelium, which were cut out of a petri dish with the broad side of a yellow pipette tip (Greiner Bio-One, 200 μl tips) with a diameter of 5 mm). Three P. ultimum agar plugs were placed in the 500 ml jar containing the 50 g autoclaved (dead) rye seeds, which was further incubated at 22° C. for one week (16 h day light, 8 hours dark). To prepare the infected soil, potting soil (Tuinaarde, ophoog grond, purchased from Welkoop) were placed in round transparent plastic containers (9 cm in diameter, 4.5 cm high, volume 250 ml). Ten infected rye seeds, that acted as a carrier for P. ultimum, were placed in each round plastic container. To treat the spinach seeds, 77.8 μl of treatment mix (see below) was added to 1 g of seeds in a plastic container. The seeds were shaken and let to dry. Once dried, 20 treated spinach seeds were added to the inoculated soil. The rye seeds and spinach seeds were mixed into the soil, so that both seed types were homogenously distributed within the soil as well as covered by the soil. […] Emergence of the seedlings was assessed. […]
Series [3] deals with Pythium ultimum. Description: Emergence of coated radish seeds in artificially infected soil. It counts as in vivo. The note with it: natamycin 0.05, thymol 0 mg/g seeds, 2 days after sowing.
Procedure: Soil infection was obtained via incubation of soil with infected, killed rye seeds. For this, 50 g of rye seeds and 50 ml water were put into a 500 ml glass jar, which was autoclaved twice (121° C., 15 min, 15 psi). The dead rye seeds were infected with Pythium ultimum PDA plugs (circular segments of PDA, covered with freshly fully grown Pythium ultimum mycelium, which were cut out of a petri dish with the broad side of a yellow pipette tip (Greiner Bio-One, 200 μl tips) with a diameter of 5 mm). Three P. ultimum agar plugs were placed in the 500 ml jar containing the 50 g autoclaved (dead) rye seeds, which was further incubated at 22° C. for one week (16 h day light, 8 hours dark). To prepare the infected soil, potting soil (Tuinaarde, ophoog grond, purchased from Welkoop) were placed in round transparent plastic containers (9 cm in diameter, 4.5 cm high, volume 250 ml). Ten infected rye seeds, that acted as a carrier for P. ultimum, were placed in each round plastic container. […] The seeds were shaken and let to dry. […] The containers were closed with transparent lids and placed into a growth cabinet with the following growth conditions: 16 h day light, 22° C. constant temperature, 70% humidity. Emergence of the seedlings was assessed. For each treatment 3 pots were used, resulting in 3 replicates. […]
Series [4] is described as follows: Solubility of natamycin in solvents (HPLC). The format is physicochemical. The protocol: The solubility of natamycin was measured in water and in the water-miscible solvent DMSO. For this, 240.6 mg and 94.3 mg of natamycin at a purity of 95% (DSM) were diluted in 50 ml of water and DMSO, respectively. The mixtures were sonicated for 30 minutes and analysed by HPLC. The HPLC system was an Agilent 1100 system. The column used was a ACE C18 RP column, 250×4.6 mm with pore size 5 μm. The mobile phase consisted of 1 g ammonium chloride and 3 g ammonium acetate dissolved in 760 mL water, and mixed with 240 mL acetonitrile and 5 mL tetrahydrofuran (THF). The speed of the flow was 3.0 ml/min and the column temperature was 25° C. The injection volume was 20 μL. Natamycin was detected with a spectrophotometer at a wavelength of 303 nm. All samples were centrifugated and filtered through 0.45 μm HPLC filters before analysis. The amount of dissolved natamycin measured in water and DMSO were 32 mg/kg and 2571 mg/kg, respectively (see Table 12).
For the water-miscible solvent Purasolv® EL, and the water-immiscible solvents BL and EHL, natamycin was added until it no longer dissolved. The mixtures were then filtered and analysed by HPLC. The amount of dissolved natamycin were 832, 211, and 271 mg/kg for EL, BL, and EHL, respectively (Table 12).

[5] abbreviates: natamycin-solvent 0-125 ppm, 2 days after plug, Tables 4-5.
[6] abbreviates: natamycin-solvent 0-250 ppm, 2 days after plug, Tables 4-5.
Setting [7] is: natamycin-solvent 0-500 ppm, 2 days after plug, Tables 4-5.
Setting [8] is: natamycin-solvent 0-25 ppm, 2 days after plug.
Setting [9] is: natamycin-solvent 0-12.5 ppm, 1 day after plug.
Setting [10] is: natamycin-solvent 0-25 ppm, 1 day after plug.
The mark [11] stands for this setting: natamycin-solvent 0-250 ppm, 1 day after plug.
[12] abbreviates: natamycin-solvent 0-12.5 ppm, 2 days after plug.
Where [13] appears, read: natamycin-solvent 0-250 ppm, 2 days after plug.

Turning to `CCO` [EtOH, Ethanol], the Avg infected area is 1602.867 mm2 in the series with Botrytis cinerea (natamycin-solvent 0-0.5 ppm), 5488.804 mm2 with Pythium ultimum [1] (setting [5]), 5286.064 mm2 with Pythium ultimum [1] (setting [6]) and 4366.453 mm2 in the series on Pythium ultimum [1] (setting [7]). Besides, the Observed % in the series on Botrytis cinerea (natamycin-solvent 0-0.5 ppm) worked out at 18.70%.

Turning to `CCOC(=O)[C@H](C)O` [EL, ethyl L-lactate], the Avg infected area in the series on Botrytis cinerea (natamycin-solvent 0-0.5 ppm) was found to be 1390.376 mm2; in the series on Pythium ultimum [1] (natamycin-solvent 0-12.5 ppm, 1 day after plug, Tables 6-7), 625.9774 mm2; in the series on Pythium ultimum [1] (natamycin-solvent 0-25 ppm, 1 day after plug, Tables 6-7) it was 574.2358 mm2; with Pythium ultimum [1] (natamycin-solvent 0-50 ppm, 1 day after plug, Tables 6-7), 619.378 mm2. The Observed % in the series with Botrytis cinerea (natamycin-solvent 0-0.5 ppm) is reported as 29.48%.

Turning to Xylene, in the series with Pythium ultimum [1] (setting [8]), the Avg infected area came to 5371.2 mm^2 and the Observed % amounted to 1.35%.

With `CC(O)C(=O)N(C)C` (stereo not shown) [Agnique ® AMD 3L, dimethyllactamide], the Avg infected area is recorded as 1220.5 mm^2 with Pythium ultimum [1] (setting [9]), 1116.3 mm^2 in the series on Pythium ultimum [1] (setting [10]) and 1278.7 mm^2 in the series with Pythium ultimum [1] (setting [11]). The figures for the Observed % with Pythium ultimum [1] (setting [9]), with Pythium ultimum [1] (setting [10]) and in the series with Pythium ultimum [1] (setting [11]) were 10.31%, 17.97% and 6.04%, respectively.

As to `C[C@@H]1C/C=C/C=C/C=C/C=C/[C@H](O[C@@H]2O[C@H](C)[C@@H](O)[C@H](N)[C@@H]2O)C[C@@H]2O[C@](O)(C[C@@H](O)C[C@H]3O[C@@H]3/C=C/C(=O)O1)C[C@H](O)[C@H]2C(=O)O` [Natamycin], the Avg infected area is given as 1183.171 mm2 in the series with Botrytis cinerea (natamycin-solvent 0.5-0 ppm); 4397.811 mm2 in the series on Pythium ultimum [1] (natamycin-solvent 25-0 ppm, 2 days after plug, Tables 4-5); 563.7967 mm2 with Pythium ultimum [1] (natamycin-solvent 50-0 ppm, 1 day after plug, Tables 6-7); 4891.484 mm2 in the series on Pythium ultimum [1] (natamycin-solvent 50-0 ppm, 2 days after plug, Tables 4-5); 4435.301 mm2 in the series on Pythium ultimum [1] (natamycin-solvent 100-0 ppm, 2 days after plug, Tables 4-5); 5059.918 mm2 in the series with Pythium ultimum [1] (natamycin-solvent 200-0 ppm, 2 days after plug, Tables 4-5). Also, the Observed % in the series with Botrytis cinerea (natamycin-solvent 0.5-0 ppm) was 39.99%; in the series with Pythium ultimum [2] it was 37.50%; in the series on Pythium ultimum [3] it was 13.64%. Further, the figures for the Avg germination in the series on Pythium ultimum [2] and in the series with Pythium ultimum [3] were 18.3 and 41.7, respectively. Besides, the “Natamycin concentration (amount of dissolved natamycin)” value is recorded as 271 mg/kg in series [4] (in 2-ethylhexyl L-lactate (Purasolv EHL)); 2571 mg/kg in series [4] (in DMSO); 832 mg/kg in series [4] (in ethyl L-lactate (Purasolv EL)); 211 mg/kg in series [4] (in n-butyl L-lactate (Purasolv BL)); 32 mg/kg in series [4] (in water).

Turning to `C[S+](C)[O-]` [DMSO, Dimethyl Sulfoxide], the Avg infected area was determined as 5247.969 mm2 in the series with Pythium ultimum [1] (setting [5]); 5238.583 mm2 with Pythium ultimum [1] (setting [6]); 5129.162 mm2 in the series with Pythium ultimum [1] (setting [7]); 4475.89 mm2 in the series with Pythium ultimum [1] (natamycin-solvent 0-1000 ppm, 2 days after plug, Tables 4-5).

As to `CC(O)C(=O)N(C)C` (stereo not shown) [DMAC, dimethyllactamide], in the series on Pythium ultimum [1] (setting [9]), the Avg infected area stood at 1251.6 mm^2 and the Observed % is on record as 6.73%. Also, in the series with Pythium ultimum [1] (setting [11]), the Avg infected area amounted to 1316.1 mm^2 and the Observed % was 1.93%.

As for `C=CCCCCCCCC(=O)N(C)C` [Hallcomid ® 1025], the Avg infected area in the series on Pythium ultimum [1] (setting [12]) was 3666.2 mm^2; with Pythium ultimum [1] (setting [8]), 2118.6 mm^2; in the series on Pythium ultimum [1] (setting [13]), 0 mm^2. Besides, the values for the Observed % with Pythium ultimum [1] (setting [12]), with Pythium ultimum [1] (setting [8]) and in the series on Pythium ultimum [1] (setting [13]) were 30.89%, 60.06% and 100.00%, respectively.

In the case of `CCCCC(CC)COC(=O)[C@H](C)O` (stereo partly drawn) [EHL, 2-ethylhexyl L-lactate], the Avg infected area with Botrytis cinerea (natamycin-solvent 0-0.5 ppm) is 1740.142 mm2; with Pythium ultimum [1] (natamycin-solvent 0-125 ppm, 1 day after plug, Tables 6-7) it was 290.1899 mm2; in the series with Pythium ultimum [1] (natamycin-solvent 0-250 ppm, 1 day after plug, Tables 6-7) it was 34.78 mm2. In addition, the Observed % with Botrytis cinerea (natamycin-solvent 0-0.5 ppm) is on record as 11.74%.
